The record followed here is patent US8039430B2 (University of Wollongong, priority 2005, dated 2011).

Where two headings read alike, the source gives them in different places.

One assay has as its system E.f449. Kind of assay: Antibacterial screening (MIC) of compounds of Example 2, E.f449. Type of assay: cell-based, Enterococcus faecium. To be noted: for MIC: Enterococcus faecium, read-out: Antibacterial activity μg/mL, E.f449. The procedure: (§1) • All assays used the Staphylococcus aureus strain ATCC 6538P. • Assays described in Chapter 5 additionally used the vancomycin-resistant enterococci and vancomycin-sensitive enterococci strains Ef243, Ef449, Ef820 and Ef487. Culture Media • Mueller-Hinton Broth Medium (MHB): MHB (Oxoid CM405) was prepared with final concentrations of […] MgCl2 and 2 μg/mL CaCl2. Culture medium was pre-warmed for approximately 2-3 h at 37° C. before use. • Mueller-Hinton Agar Medium (MHA): MMB containing 1.5% Agar (Merck Agar 1.01614). Maintenance of Bacteria • From a thawed cryovial, the bacteria was streaked onto MHA and the plate incubated overnight at 37° C. • From this plate, 10 cryovials were prepared by looping several colonies into 0.5 mL of 20% glycerol solution. The cryovials were immediately stored at −140° C. Preparation of Seed Cultures • A cryovial was removed from −140° C. storage and thawed at room temperature. • An MHA plate was streaked with a loopful of bacterial suspension and incubated overnight at 37° C. to create a parent plate (P1). • A daughter plate (D1) was streaked from the parent plate and incubated overnight at 37° C. […] The second parent plate (P2) was used to generate two additional daughter plates using the procedure outlined above before being discarded. • Cryovials were used twice to prepare parent plates (P1 and P2) before being discarded. […] A vancomycin control set (triplicate) and a compound negative control set (triplicate) were also included on each plate (FIG. 1). • The inoculated culture medium was incubated at 37° C. for 30 min, with shaking at 130 rpm. • Using a multichannel pipette, the contents of the first row were mixed before 50 μL was transferred to the second row. The pipette tips were changed and the process repeated by 50 μL of the mixed broth solutions in the second row being transferred to the third row. This process was repeated until the last row contained either the diluted test compound or a control (vancomycin or compound-negative). […] Antibacterial Testing of Compounds of Example 2 Introduction
(§2) The specific testing procedures and protocols are outlined in the section “Antibacterial Screening Methodology for the Compounds of Example 2”.
(§3) Vancomycin was used as the standard/control.

For the next assay, the system named is E.f987. The assay can be described thus: Antibacterial screening (MIC) of compounds of Example 2, E.f987. To be noted: for MIC: Enterococcus faecium, read-out: Antibacterial activity μg/mL, E.f987. Type of assay: cell-based, Enterococcus faecium.
In assay [1] the test system is Staphylococcus aureus strain ATCC 6538P. Kind of assay: Antibacterial screening (MIC) of compounds of Example 2, S. aureus, Mueller-Hinton broth. Format: cell-based. To be noted: for MIC: Staphylococcus aureus, ATCC6538P, read-out: Antibacterial activity μg/mL, S.a. The procedure: Antibacterial Screening Methodology for Compounds of Example 2
as §1, §2
The antibacterial activity results are measured by minimum inhibitory concentration (MIC), which is the lowest concentration of compound necessary to prevent bacterial growth.

In a further assay the test system is E.f243. The assay can be described thus: Antibacterial screening (MIC) of compounds of Example 2, E.f243. To be noted: for MIC: Enterococcus faecium, read-out: Antibacterial activity μg/mL, E.f243. Format: cell-based, Enterococcus faecium. As to the method:
as §1, §2, §3

For the next assay, the system named is E.f820. Kind of assay: Antibacterial screening (MIC) of compounds of Example 2, E.f820. Format: cell-based, Enterrococci faecium. To be noted: for MIC: read-out: Antibacterial activity μg/mL, E.f820. The procedure: as §1, §2, §3
Where [2] appears, read: Example 2 compounds, enterococci strain E.f449.
Where [3] appears, read: Example 2 compounds, enterococci strain E.f987.
Where [4] appears, read: Example 2 compounds (linear cationic peptides), S. aureus, vancomycin-susceptible strain.
Where [5] appears, read: Example 2 compounds, enterococci strain E.f243.
Setting [6] is: Example 2 compounds, fully vancomycin-resistant strain E.f820.

Consider `C=CCOc1ccc2ccccc2c1-c1c(OCC(=O)N[C@H](CCCCN)C(=O)N[C@H](CCCNC(=N)N)C(=O)N[C@@H](CC=C)C(=O)OCc2ccccc2)ccc2ccccc12.Cl.Cl` (atropisomer, axis not shown) [Compound 132], for which the MIC was found to be 31.3 µg/mL with E.f449 (setting [2]); 62.5 µg/mL in the assay on E.f987 (setting [3]); 3.9 µg/mL in assay [1] (setting [4]); 31.3 µg/mL in the assay with E.f243 (setting [5]); 31.3 µg/mL with E.f820 (setting [6]).
In the case of `CCCOc1ccc2ccccc2c1-c1c(OCC(=O)N[C@H](CCCCN)C(=O)N[C@H](CCCNC(=N)N)C(=O)N[C@@H](CCC)C(=O)OCc2ccccc2)ccc2ccccc12.Cl.Cl` (atropisomer, axis not shown) [Compound 141, Benzyl(2S,5R,8R)-3,6,9-triaza-8-(4-aminobutyl)-5-(3-guanidinopropyl)-4,7,10-trioxo-2-propyl-11-(2-[2′-3-(propyloxy)-{1,1′}-(S)-binaphthalen-2-yloxy])undecanoate], the MIC came out at 31.3 µg/mL in the assay on E.f449 (setting [2]); 62.5 µg/mL in the assay with E.f987 (setting [3]); 3.9 µg/mL in assay [1] (setting [4]); 31.3 µg/mL with E.f243 (setting [5]); 31.2 µg/mL with E.f820 (setting [6]).
Turning to `C=CC[C@H](NC(=O)[C@@H](CCCNC(=N)N)NC(=O)[C@@H](CCCCN)NC(=O)[C@H](Cc1ccc(-c2c3ccccc3cc3ccccc23)cc1)NC(C)=O)C(=O)OCc1ccccc1.Cl.Cl` [Compound 139, Benzyl(2S,5R,8R,11S)-2-allyl-8-(4-aminobutyl)-11-(4-[9-anthracenyl]benzyl)-3,6,9,12-tetraaza-5-(3-guanidinopropyl)-4,7,10,13-tetraoxotetradecanoate], the MIC in the assay on E.f449 (setting [2]) is > 125 µg/mL; with E.f987 (setting [3]) it was > 125 µg/mL; in assay [1] (setting [4]), 15.6 µg/mL; with E.f243 (setting [5]), > 125 µg/mL; with E.f820 (setting [6]) it was > 125 µg/mL.
Turning to `C=CC[C@H](NC(=O)[C@@H](CCCNC(=N)N)NC(=O)[C@@H](CCCCN)NC(=O)COc1ccc2ccccc2c1-c1c(OCCCc2ccccc2)ccc2ccccc12)C(=O)OCc1ccccc1.Cl.Cl` (atropisomer, axis not shown) [Compound 137], the MIC with E.f449 (setting [2]) worked out at 31.3 µg/mL; in the assay on E.f987 (setting [3]), 62.5 µg/mL; in assay [1] (setting [4]), 3.9 µg/mL; with E.f243 (setting [5]) it was 62.5 µg/mL; in the assay on E.f820 (setting [6]), 31.3 µg/mL.
As for `CCCOc1ccc2ccccc2c1-c1c(OCC(=O)N[C@H](CCCNC(=N)N)C(=O)Nc2cccc(C(=O)NO)c2)ccc2ccccc12.Cl` (atropisomer, axis not shown) [Compound 164], the MIC was > 125 µg/mL in the assay on E.f449 (setting [2]); > 125 µg/mL in the assay on E.f987 (setting [3]); 7.8 µg/mL in assay [1] (setting [4]); > 125 µg/mL with E.f243 (setting [5]); > 125 µg/mL in the assay with E.f820 (setting [6]).
With `C=CC[C@H](NC(=O)[C@@H](CCCNC(=N)N)NC(=O)[C@@H](CCCCN)NC(=O)[C@H](Cc1ccc(-c2cc3ccccc3c3ccccc23)cc1)NC(C)=O)C(=O)OCc1ccccc1.Cl.Cl` [Compound 140, Benzyl(2S,5R,8R,11S)-2-allyl-8-(4-aminobutyl)-3,6,9,12-tetraaza-5-(3-guanidinopropyl)-4,7,10,13-tetraoxo-11-(4-[9-phenanthrenyl]benzyl)tetradecanoate], the MIC with E.f449 is > 125 µg/mL; in the assay with E.f987 it was > 125 µg/mL; in assay [1], 7.8 µg/mL; with E.f243, > 125 µg/mL; with E.f820, > 125 µg/mL.
As for `C=CCOc1ccc2ccccc2c1-c1c(OCC(=O)N[C@H](CCCNC(=N)N)C(=O)Nc2cccc(C(=O)OCc3ccccc3)c2)ccc2ccccc12.Cl` (atropisomer, axis not shown) [Compound 158, Benzyl(3R)-3-(6-(2-[2′-allyloxy-{1,1′}-(S)-binaphthalen-2-yloxy])-1,4-diaza-3-(3-guanidylpropyl)-2,5-dioxohexyl)benzoate hydrochloride], the MIC turned out to be 62.5 µg/mL with E.f449 (setting [2]); 62.5 µg/mL in the assay on E.f987 (setting [3]); 7.8 µg/mL in assay [1] (setting [4]); 62.5 µg/mL with E.f243 (setting [5]); 31.3 µg/mL in the assay with E.f820 (setting [6]).
`C=CC[C@H](NC(=O)[C@H](CCCCN)NC(=O)[C@H](Cc1ccc(-c2c3ccccc3cc3ccccc23)cc1)NC(C)=O)C(=O)OC.Cl` [Compound 118, Methyl(2S,5S,8S)-2-allyl-5-(4-aminobutyl)-8-(4-[9-anthrecenyl]benzyl)-3,6,9-triaza-5-butylamino-4,7,10-trioxoundecanoate hydrochloride]: the MIC in the assay on E.f449 (setting [2]) was > 125 µg/mL; in the assay with E.f987 (setting [3]), > 125 µg/mL; in assay [1] (setting [4]) it was 31.3 µg/mL; in the assay with E.f243 (setting [5]), > 125 µg/mL; in the assay with E.f820 (setting [6]), > 125 µg/mL.
Regarding `C=CC[C@H](NC(=O)[C@@H](CCCNC(=N)N)NC(=O)[C@H](NCCCC)NC(=O)COc1ccc2ccccc2c1-c1c(OCc2ccccc2)ccc2ccccc12)C(=O)OCc1ccccc1.Cl.Cl` [Compound 134, Benzyl(2S,5R,8R)-2-allyl-3,6,9-triaza-11-(2-[2′-benzyloxy-{1,1′}-(S)-binaphthalen-2-yloxy])-8-(butylamino)-5-(3-guanidinopropyl)-4,7,10-trioxoundecanoate dihydrochloride], the “Antibacterial activity μg/mL, E.f449” value with E.f449 (setting [2]) is 62.5 µg/mL. The “Antibacterial activity μg/mL, E.f987” value in the assay on E.f987 (setting [3]) came to 125 µg/mL. Further, the “Antibacterial activity μg/mL, S.a” value in assay [1] (setting [4]) is 3.9 µg/mL. Besides, in the assay with E.f243 (setting [5]), the “Antibacterial activity μg/mL, E.f243” value was 62.5 µg/mL. Moreover, the “Antibacterial activity μg/mL, E.f820” value in the assay with E.f820 (setting [6]) is 62.5 µg/mL.
For `C=CCOc1ccc2ccccc2c1-c1c(OCC(=O)N[C@H](CCCNC(=N)N)C(=O)Nc2cccc(C(=O)OC)c2)ccc2ccccc12.Cl` (atropisomer, axis not shown) [Compound 156, Methyl(3R)-3-(6-(2-[2′-allyloxy-{1,1′}-(S)-binaphthalen-2-yloxy])-1,4-diaza-3-(3-guanidylpropyl)-2,5-dioxohexyl)benzoate hydrochloride], the MIC was found to be 125 µg/mL in the assay with E.f449 (setting [2]); 62.5 µg/mL in the assay with E.f987 (setting [3]); 3.9 µg/mL in assay [1] (setting [4]); 125 µg/mL with E.f243 (setting [5]); 62.5 µg/mL in the assay on E.f820 (setting [6]).
For `C=CC[C@H](NC(=O)[C@H](CCCCN)NC(=O)[C@H](Cc1ccc(-c2cc3ccccc3c3ccccc23)cc1)NC(C)=O)C(=O)OC.Cl` [Compound 119], the MIC in the assay with E.f449 (setting [2]) is > 125 µg/mL; with E.f987 (setting [3]) it was > 125 µg/mL; in assay [1] (setting [4]) it was 15.6 µg/mL; in the assay with E.f243 (setting [5]), > 125 µg/mL; in the assay on E.f820 (setting [6]) it was > 125 µg/mL.
As for `C=CCOc1ccc2ccccc2c1-c1c(OCC(=O)N[C@H](CCCN)C(=O)Nc2cccc(C(=O)OC)c2)ccc2ccccc12.Cl` [Compound 155, Methyl(3R)-3-(6-(2-[2′-allyloxy-{1,1′}-(S)-binaphthalen-2-yloxy])-3-(3-aminopropyl)-1,4-diaza-2,5-dioxohexyl)benzoate hydrochloride], the “Antibacterial activity μg/mL, E.f449” value with E.f449 (setting [2]) is 125 µg/mL. Also, the “Antibacterial activity μg/mL, E.f987” value with E.f987 (setting [3]) was >125 µg/mL. In assay [1] (setting [4]), the “Antibacterial activity μg/mL, S.a” value is 7.8 µg/mL. In addition, in the assay on E.f243 (setting [5]), the “Antibacterial activity μg/mL, E.f243” value is >125 µg/mL. Moreover, the “Antibacterial activity μg/mL, E.f820” value with E.f820 (setting [6]) turned out to be 125 µg/mL.
As for `C=CCOc1ccc2ccccc2c1-c1c(OCC(=O)N[C@H](CCCN)C(=O)Nc2cccc(C(=O)OCc3ccccc3)c2)ccc2ccccc12.Cl` [Compound 157, Benzyl(3R)-3-(6-(2-[2′-allyloxy-{1,1′}-(S)-binaphthalen-2-yloxy])-3-(3-aminopropyl)-1,4-diaza-2,5-dioxohexyl)benzoate hydrochloride], the “Antibacterial activity μg/mL, E.f449” value in the assay on E.f449 (setting [2]) amounted to 125 µg/mL. The “Antibacterial activity μg/mL, E.f987” value in the assay with E.f987 (setting [3]) was >125 µg/mL. Moreover, the “Antibacterial activity μg/mL, S.a” value in assay [1] (setting [4]) came to 15.6 µg/mL. Also, in the assay with E.f243 (setting [5]), the “Antibacterial activity μg/mL, E.f243” value was >125 µg/mL. Also, the “Antibacterial activity μg/mL, E.f820” value with E.f820 (setting [6]) was 125 µg/mL.
